# Entries after “also recorded” stand apart in the source; their conditions may differ.
# Tests used:
# [1] = system: phospho-c-Jun (JNK) in normal human epithelial keratinocytes (nHEK); assay: UVB-stimulated JNK activation in nHEK cells (Western blot); type: cell-based
# Method: Two in vitro systems, nHEK and the EpiDermFT™ skin model, were used in this study. The nHEK cells and EpiDermFT™ samples were pretreated with JNKi-1 at concentrations of 0.1, 3, and 10 μM prior to 60 mJ/cm^2 and 135 mJ/cm^2 UVB irradiation, respectively. After UV stimulation, the activities of JNK were measured as levels of phospho-c-Jun via immunoblotting of cell lysates using an anti-phospho-c-Jun S63 antibody. Phospho-Stat3 was also evaluated as a marker of JNK activation.
# nHEK Model system. Normal human epithelial keratinocytes (nHEK) cells were grown after three passages. Cells were plated at 2×10^6/plate in 100 mm plates. Plates were incubated at 37° C., 5% CO2 for 5 days until ˜80% confluent. Each plate was washed with warm phosphate buffered saline (PBS) and replenished with 10 mL of media containing either 0, 0.1, 3, or 10 μM of JNKi-1 and incubated for 1 hour (hr) at 37° C. Eight mL of media were removed and set aside. Plates were irradiated with 60 mJ/cm^2 of UVB in a UV cross-linker machine and control plates were sham irradiated. The 8 mL of media set aside were returned to each plate and stored at 37° C. Cells were harvested at 30 minutes and 4 hr post UV treatment and lysed in ice cold cell extraction buffer. Lysates were stored at −80° C.
# cells were pre-incubated with either dimethyl sulfoxide (DMSO) (FIG. 31, lanes 1, 2, and 12 to 15) or JNKi-1 at the indicated concentration (lanes 3 to 11) for 1 hr and then irradiated without (Control, lanes 1 and 2) or with UVB at 60 mJ/cm^2 (lanes 3 to 15). Cells were lysed 30 minutes after UV irradiation and cell lysates were subjected to sodium dodecyl sulfate polyacrylamide gel electrophoresis (SDS-PAGE) before Western blotting with anti-phospho-c-Jun antibody. […]
# Western analysis: For Western blot analysis, 20 to 25 μg of total protein were applied to SDS-PAGE gels followed by electrophoresis and blotting. […] The intensity of each band was quantified by the Odyssey 2.1 software and exported into Excel for further analysis. […]
# [2] = system: c-Jun (JNK) in human skin; assay: UVB-irradiated human skin, c-Jun IHC (3-way crossover study); type: in vivo; conditions: for median subjective score of c-Jun: scale 0-4
# Method: The inhibitory effect of JNKi-1 on JNK was evaluated by assessing the status of the downstream substrate c-Jun (“cJun”) and phospho-c-Jun (or “p-cJun”) following UV irradiation of human skin.
# The study was designed as randomized, double blind, placebo controlled, multiple dose, 3-way crossover study. Fifteen subjects were randomized to one of 3 sequences (5 subjects per sequence) as outlined below (see Table 3). There was a 7-day to 10 day washout period (no more than 14 days) from the last dose of the previous period to the first dose of the next period.
# Fifteen patients enrolled, 14 completed the study and were included in the PD and PK analyses; all were healthy Caucasian male volunteers with Fitzpatrick skin type 2. The mean age was […] (20-49 years) and weight was 81 kg (64-96 kg). On the evening of Day-1, patients started fasting (at least an 8-hour fast prior to dosing on Day 1). Subjects received treatment A, B or C in Periods 1 to 3 under fasting conditions in an order based on the randomization scheme. Subjects went through the same procedures (except for the change in treatment) for all 3 periods, with the required washout in between periods. No strenuous activities were permitted during confinement. All efforts were made to keep activities, environment, food, procedures, and schedule between treatment periods identical.
# On Day 6, subjects received a 2×MED UV dose to two sites on the buttock. One punch biopsy (approximately 3 mm in diameter by 0.8 mm in depth) was taken from one of the two UV irradiated sites. The punch biopsies were taken at 8 (±5 minutes) hours post UV exposure on Day 6.
# Skin specimens from the biopsies was analyzed for phospho c-Jun and total c-Jun using IHC assay. Phospho c-Jun was quantified using a 0-4 subjective grading scales and/or objective scoring using an automated system, i.e. a laser scanning cytometer (LSC), evaluating the integrated intensity of staining measured optically.
# Biopsies were analyzed following the procedures described below to evaluate phospho c-Jun and c-Jun expression using IHC assay. The method employed to assess JNK activation was a two antibody IHC assay that employed a primary antibody, directed against the target, and a secondary antibody conjugated with a chromogenic enzyme. Thus, the method was a two-step immunohistochemical assay designed to interrogate the target, c-Jun and phospho c-Jun. Any changes in JNK activity were measurable in the amounts of these target molecules, c-Jun and phospho c-Jun. The secondary antibody-reporter conjugate deposited a red color when incubated with the substrate reaction mix, thus marking the location of the primary antibody target complex. The red color was then recorded with standard bright-field illumination using a Nikon microscope. The microscope images were then photographed and electronic images were scored (blinded) by three independent and trained scorers using the following guidelines. A score of 0 indicated staining of 0-19% of the epithelial keratinocyte nuclei; a score of 1 indicated staining of 20-39% of the epithelial keratinocyte nuclei; a score of 2 indicated staining of 40-59% of the epithelial keratinocyte nuclei; a score of 3 indicated staining of 60-79% of the epithelial keratinocyte nuclei; and a score of 4 indicated staining of 80-100% of the epithelial keratinocyte nuclei. FIG. 21 depicts representative immunostaining for the respective scores.
# For each tissue, a count of nuclei in the epithelial layer was obtained. All phospho c-Jun or c-Jun positive nuclei were counted as well as their integral (intensity). A score was calculated for each: score=(p-cJun or cJun positive nuclei×average Intensity)/Total nuclei.
smiles,measurement,setting,value
"O[C@H]1CC[C@H](Nc2ncc3nc(Nc4c(F)cc(F)cc4F)n([C@H]4CCOC4)c3n2)CC1 [JNKi-1, 4-((9-((3S)-tetrahydro-3-furanyl)-8-((2,4,6-trifluorophenyl)amino)-9H-purin-2-yl)amino)-trans-cyclohexanol]",IC50,"[1]; Homo sapiens, light or radiation study, nHEK, 1 hr pretreatment, UVB 60 mJ/cm^2, lysed 30 minutes after UV, read-out: IC50 for p-cJun",100 to 3000 nM
same,"UVB-induced JNK activation (phospho-c-Jun level), in words","[1]; nHEK, 0.1, 3, 10 μM",strongly Inhibits; also recorded: significantly blocks
same,inhibition of phospho-Stat3,"[1]; nHEK, 30 minutes post UV, data not shown",minimal
same,median subjective score of c-Jun,[2]; 75 mg QD x 6 days,3
same,"odds ratio, c-Jun scores 0, 1, 2 vs. scores 3, 4 (logistic regression)",[2]; 75 mg vs. placebo,3.69
same,median subjective score of c-Jun,[2]; 200 mg QD x 6 days,2
same,frequency of high c-Jun subjective scores,[2]; 200 mg vs placebo,fewer subjects had high cJun scores; also recorded: fewer patients had high scores
same,"odds ratio, c-Jun scores 0, 1, 2 vs. scores 3, 4 (logistic regression)",[2]; 200 mg vs. placebo,9.30
same,"c-Jun immunostaining, percentage of positive epithelial nuclei, Patient 15",[2]; versus placebo,significantly decreased

# Source: US8680076B2, “Methods of treatment, improvement and prevention using haloaryl substituted aminopurines” (Signal Pharmaceuticals, LLC, priority 2010, dated 2014)
